Test results from US8846671B2, “Heterocyclic alkynyl benzene compounds and medical compositions and uses thereof” (Guangzhou Institute of Biomedicine and Health, Chinese …, priority 2010, dated 2014).
Where two headings read alike, the source gives them in different places.

What was measured:
[1] = system: K562 (human chronic myelogenous leukemia cell line); assay: tumor cell proliferation, MTT or CCK8 assay, 72 h incubation; format: cell-based; conditions: K562, 72 h, read-out: IC50 on tumor cell proliferation, K562
Method: (§1) The heterocyclic alkynyl benzene compounds at different concentrations (1×10^−10˜1×10^−5M) were incubated for 72 hours individually applied to 6 cell lines K562 (human CML cell line), MOLT-4 (human ALL cell line), U937 (human CML cell line), MEG-01 (human CML cell line), L78 (human lung cancer cell line), Ba/F3-T315I (mice Pro-B cells transformed with Bcr-AblT315I and STI57′-resistant cell line). After incubation for 72 hrs, cell proliferation was then determined by MTT assay or CCK8 assay, and 4 hr incubation is further conducted, the absorbance at 570 nm (CCK8, 450 nm, 650 nm) was measured using enzyme Microplate Reader. […] Based on the inhibition potency of the heterocyclic alkynyl benzene compounds on the cell proliferation, IC50 values were calculated and summarized in the Table 1 and Table 2 (The compounds used were synthesized by Examples 1-40, and the compounds are marked with Drug No. series in Table 1).

[2] = system: MOLT-4 (Human acute lymphoblastic leukemia cell line); assay: as above; format: cell-based; conditions: MOLT-4, 72 h, read-out: IC50 on tumor cell proliferation, MOLT-4
Method: as §1

[3] = system: K562R cells (imatinib-resistant cell line); assay: as above; format: cell-based; conditions: Homo sapiens, K-562R, imatinib-resistant K562R, read-out: IC50 on tumor cell proliferation, K562R cells
[4] = target: BAF3-T315I cells (Ba/F3 cell line stably expressing BCR/ABL T315I) (Homo sapiens, UniProt P00519, T315I, cells depend on it); assay: as above; format: cell-based, mice
Method: The heterocyclic alkynyl benzene compounds at different concentrations (1×10^−10˜1×10^−5M) were incubated for 72 hours individually applied to 6 cell lines K562 (human CML cell line), MOLT-4 (human ALL cell line), U937 (human CML cell line), MEG-01 (human CML cell line), L78 (human lung cancer cell line), Ba/F3-T315I (mice Pro-B cells transformed with Bcr-AblT315I and STI57′-resistant cell line). After incubation for 72 hrs, cell proliferation was then determined by MTT assay or CCK8 assay, and 4 hr incubation is further conducted, the absorbance at 570 nm (CCK8, 450 nm, 650 nm) was measured using enzyme Microplate Reader.

[5] = Pharmacokinetics and bioavailability in rats; format: in vivo; conditions: SD rats; corresponding pharmaceutical acceptable salt forms
Method: Pharmacokinetics and bioavailability in rats. […] The blood samples were collected at the proper time points after administration, add heparin-anticoagulant, and the supernatants of the blood samples were collected (3000 rpm, 10 min) and stored at -20° C. for HPLC-MS analysis. After protein-precipitation procedure with acetonitrile, supernatants were collected after 3000 rpm, 10 min for analysis with HPLC-MS. The data were analyzed with software DAS2.0 to separately acquire the parameters of compartment models and non-compartment models. The bioavailability was calculated according to AUC data.

[6] = system: U937 Cell line; assay: tumor cell proliferation, MTT or CCK8 assay, 72 h incubation; format: cell-based; conditions: Homo sapiens, U-937; 72 h, MTT or CCK8; no unit in cell; read-out: IC50 on tumor cell proliferation, U937
Method: as §1

[7] = Ba/F3 expressing BCR/ABL T315I, 72 h, Table 1; read-out: IC50 on tumor cell proliferation, BAF3-T315I cells

| Structure (SMILES) | IC50 ([1]; MTT or CCK8, nM) | IC50 ([2]; MTT or CCK8, nM) | IC50 [3] | GI50 [4, 7] | pharmacokinetics parameters, overall judgement [5] | GI50 ([4]; read-out: IC50 on tumor cell proliferation, BAF3-T315I cells; Ba/F3 expressing BCR/ABL T315I, 72 h, Table 1) | IC50 ([1]; MTT or CCK8, no unit in cell) | IC50 [6] | IC50 ([2]; MTT or CCK8, no unit in cell) |
| --- | --- | --- | --- | --- | --- | --- | --- | --- | --- |
| Cc1cn(-c2cc(NC(=O)c3ccc(C)c(C#Cc4cnc5ccnn5c4)c3)cc(C(F)(F)F)c2)cn1 [D822, 4-methyl-N-(3-(4-methyl-1H-imidazol-1-yl)-5-(trifluoromethyl)phenyl)-3-(2-(pyrazolo[1,5-a]pyrimidin-6-yl)ethynyl)benzamide] | 4.34 nM | > 100 nM | 580 nM | 1100 nM | adequate pharmacokinetics parameters |  |  |  |  |
| Cc1ccc(C(=O)Nc2cc(-n3ccnc3)cc(C(F)(F)F)c2)cc1C#Cc1cnc2[nH]ncc2c1 [D831, N-(3-(1H-imidazol-1-yl)-5-(trifluoromethyl)phenyl)-3-(2-(1H-pyrazolo[3,4-b]pyridin-5-yl)ethynyl)-4-methylbenzamide] | 0.466 nM | 7130 nM | 54 nM | 36.8 nM | adequate pharmacokinetics parameters |  |  |  |  |
| Cc1cn(-c2cc(NC(=O)c3ccc(C)c(C#Cc4cnc5[nH]ccc5c4)c3)cc(C(F)(F)F)c2)cn1 [D832, 3-(2-(1H-pyrrolo[2,3-b]pyridin-5-yl)ethynyl)-4-methyl-N-(3-(4-methyl-1H-imidazol-1-yl)-5-(trifluoromethyl)phenyl)benzamide] | 7.27 nM | > 100 nM | 200 nM | 21.8 nM |  |  |  |  |  |
| Cc1cn(-c2cc(NC(=O)c3ccc(C)c(C#Cc4cnc(NC[C@H](O)CO)nc4)c3)cc(C(F)(F)F)c2)cn1 [D834, 3-(2-(2-((S)-2,3-dihydroxypropylamino)pyrimidin-5-yl)ethynyl)-4-methyl-N-(3-(4-methyl-1H-imidazol-1-yl)-5-(trifluoromethyl)phenyl)benzamide] | 8.7 nM | > 100 nM | 190 nM | 215 nM |  |  |  |  |  |
| Cc1ccc(C(=O)Nc2ccc(CN3CCOCC3)c(C(F)(F)F)c2)cc1C#Cc1cnc2ccnn2c1 [D931, 4-methyl-N-(4-(morpholinomethyl)-3-(trifluoromethyl)phenyl)-3-(2-(pyrazolo[1,5-a]pyrimidin-6-yl)ethynyl)benzamide] |  |  | 510 nM | 2750 nM |  |  | > 10000 nM | 4600 nM | 7430 nM |
| Cc1cn(-c2cc(NC(=O)c3ccc(C)c(C#Cc4cnc5ccnn5c4)c3)cc(C(C)(C)C)c2)cn1 [D941, N-(3-tert-butyl-5-(4-methyl-1H-imidazol-1-yl)phenyl)-4-methyl-3-(2-(pyrazolo[1,5-a]pyrimidin-6-yl)ethynyl)benzamide] |  |  | 410 nM | 102 nM |  |  | 2.34 nM | 696 nM | 340 nM |
| Cc1ccc(C(=O)Nc2ccc(CN3CC[C@@H](N(C)C)C3)c(C(F)(F)F)c2)cc1C#Cc1cnc2ccnn2c1 [D943] |  |  | 320 nM | 618 nM |  |  | 8.3 nM | 2120 nM | 1630 nM |
| Cc1cn(-c2cc(F)cc(NC(=O)c3ccc(C)c(C#Cc4cnc5[nH]ncc5c4)c3)c2)cn1 [D963, 3-(2-(1H-pyrazolo[3,4-b]pyridin-5-yl)ethynyl)-N-(3-fluoro-5-(4-methyl-1H-imidazol-1-yl)phenyl)-4-methylbenzamide] |  |  | 75.1 nM | 243 nM |  |  | 0.997 nM | > 1000 nM |  |
| Cc1ccc(C(=O)Nc2ccc(CN3CC[C@H](N(C)C)C3)c(C(F)(F)F)c2)cc1C#Cc1cnc2[nH]ncc2c1 [D966, (S)-3-(2-(1H-pyrazolo[3,4-b]pyridin-5-yl)ethynyl)-N-(4-((3-(dimethylamino)pyrrolidin-1-yl)methyl)-3-(trifluoromethyl)phenyl)-4-methylbenzamide] |  |  |  | 13.8 nM |  |  | 0.324 nM | 18.5 nM |  |
| Cc1cn(-c2cccc(NC(=O)c3ccc(C)c(C#Cc4cnc5[nH]ncc5c4)c3)c2)cn1 [D967, 3-(2-(1H-pyrazolo[3,4-b]pyridin-5-yl)ethynyl)-4-methyl-N-(3-(4-methyl-1H-imidazol-1-yl)phenyl)benzamide] |  |  | 207 nM | 798 nM |  |  | 0.314 nM | 5830 nM |  |

Now from value to compound:

| IC50 ([1]; MTT or CCK8, nM) | IC50 ([2]; MTT or CCK8, nM) | IC50 [3] | GI50 [4, 7] | pharmacokinetics parameters, overall judgement [5] | GI50 ([4]; read-out: IC50 on tumor cell proliferation, BAF3-T315I cells; Ba/F3 expressing BCR/ABL T315I, 72 h, Table 1) | IC50 ([1]; MTT or CCK8, no unit in cell) | IC50 [6] | IC50 ([2]; MTT or CCK8, no unit in cell) | Structure (SMILES) |
| --- | --- | --- | --- | --- | --- | --- | --- | --- | --- |
| 0.494 nM | > 100 nM | 14 nM |  | adequate pharmacokinetics parameters | 1.65 nM |  |  |  | Cc1ccc(C(=O)Nc2ccc(CN3CCN(C)CC3)c(C(F)(F)F)c2)cc1C#Cc1cnc2[nH]ncc2c1 [D824, 3-(2-(1H-pyrazolo[3,4-b]pyridin-5-yl)ethynyl)-4-methyl-N-(4-((4-methylpiperazin-1-yl)methyl)-3-(trifluoromethyl)phenyl)benzamide] |
| 1.88 nM | 92.9 nM | 50 nM | 15.7 nM | adequate pharmacokinetics parameters |  |  |  |  | Cc1ccc(C(=O)Nc2ccc(CN3CCN(C)CC3)c(C(F)(F)F)c2)cc1C#Cc1cnc(NC2CC2)nc1 [D825, 3-(2-(2-(cyclopropylamino)pyrimidin-5-yl)ethynyl)-4-methyl-N-(4-((4-methylpiperazin-1-yl)methyl)-3-(trifluoromethyl)phenyl)benzamide] |
| 0.402 nM | > 100 nM | 26 nM | 8.58 nM |  |  |  |  |  | Cc1ncn(-c2cc(NC(=O)c3ccc(C)c(C#Cc4cnc5[nH]ncc5c4)c3)cc(C(F)(F)F)c2)n1 [D835, 3-(2-(1H-pyrazolo[3,4-b]pyridin-5-yl)ethynyl)-4-methyl-N-(3-(3-methyl-1H-1,2,4-triazol-1-yl)-5-(trifluoromethyl)phenyl)benzamide] |
|  |  | 32 nM | 245 nM |  |  | 65.7 nM | 715 nM | 955 nM | Cc1ccc(C(=O)Nc2ccc(CN3CC[C@H](N(C)C)C3)c(C(F)(F)F)c2)cc1C#Cc1cnc2ccnn2c1 [D940, (S)—N-(4-((3-(dimethylamino)pyrrolidin-1-yl)methyl)-3-(trifluoromethyl)phenyl)-4-methyl-3-(2-(pyrazolo[1,5-a]pyrimidin-6-yl)ethynyl)benzamide] |
|  |  | 44 nM | 102 nM |  |  | 3.54 nM | 1300 nM | 674 nM | Cc1ccc(C(=O)Nc2ccc(CN3CCN(CCO)CC3)c(C(F)(F)F)c2)cc1C#Cc1cnc2ccnn2c1 [D942, N-(4-((4-(2-hydroxyethyl)piperazin-1-yl)methyl)-3-(trifluoromethyl)phenyl)-4-methyl-3-(2-(pyrazolo[1,5-a]pyrimidin-6-yl)ethynyl)benzamide] |
|  |  | 32 nM | 24.2 nM |  |  | 0.938 nM | > 1000 nM |  | Cc1cn(-c2cc(Cl)cc(NC(=O)c3ccc(C)c(C#Cc4cnc5[nH]ncc5c4)c3)c2)cn1 [D964, 3-(2-(1H-pyrazolo[3,4-b]pyridin-5-yl)ethynyl)-N-(3-chloro-5-(4-methyl-1H-imidazol-1-yl)phenyl)-4-methylbenzamide] |
|  |  | 5.7 nM | 6.87 nM |  |  | 0.588 nM | 817 nM |  | Cc1ccc(C(=O)Nc2ccc(CN3CC[C@@H](N(C)C)C3)c(C(F)(F)F)c2)cc1C#Cc1cnc2[nH]ncc2c1 [D965, (R)-3-(2-(1H-pyrazolo[3,4-b]pyridin-5-yl)ethynyl)-N-(4-((3-(dimethylamino)pyrrolidin-1-yl)methyl)-3-(trifluoromethyl)phenyl)-4-methylbenzamide] |
|  |  | 32 nM | 6.36 nM |  |  | 0.701 nM | > 1000 nM |  | Cc1cn(-c2cc(NC(=O)c3ccc(C)c(C#Cc4cnc5[nH]ncc5c4)c3)cc(C(C)(C)C)c2)cn1 [D968, 3-(2-(1H-pyrazolo[3,4-b]pyridin-5-yl)ethynyl)-N-(3-tert-butyl-5-(4-methyl-1H-imidazol-1-yl)phenyl)-4-methylbenzamide] |
